Data set [1] concerns human foreskin fibroblasts (HFF). Description: MTT cytotoxicity assay. It counts as cell-based.
The target of data set [2] is plasmepsin II (PMII) (Plasmodium falciparum, UniProt P46925). The experiment in a line: Fluorogenic substrate inhibition assay of mature soluble recombinant PMII. It counts as biochemical.

Non-standard residues stand in square brackets, D forms with d. Residues, ends and D or L forms follow the SMILES beside them. *: point of attachment. Sta = CC(C)C[C@H](N)[C@@H](O)CC(=O)O; Isovaleryl = CC(C)CC(=O)*

Sequence of plasmepsin II (PMII) (P46925 125-453): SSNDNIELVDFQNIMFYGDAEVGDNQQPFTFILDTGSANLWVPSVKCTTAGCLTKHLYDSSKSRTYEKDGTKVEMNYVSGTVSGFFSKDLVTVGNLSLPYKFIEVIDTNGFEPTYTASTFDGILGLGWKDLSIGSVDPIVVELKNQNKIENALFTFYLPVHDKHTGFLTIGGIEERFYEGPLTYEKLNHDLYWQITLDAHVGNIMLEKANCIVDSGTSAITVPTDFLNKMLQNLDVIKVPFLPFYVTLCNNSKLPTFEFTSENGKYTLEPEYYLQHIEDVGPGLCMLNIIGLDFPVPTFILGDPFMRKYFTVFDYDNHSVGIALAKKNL

In the case of `Cc1cc(N(C)CCN(C)C)cc(C)c1OCC(=O)N[C@@H](Cc1ccccc1)[C@H](O)C(=O)N1CSC(C)(C)[C@H]1C(=O)N[C@H]1c2ccccc2C[C@H]1O` [KNI-10743], the “Cytotoxicity (cell viability, MTT)” value in data set [1] (highest concentration tested 25 µM, continuous exposure for 2 consecutive days) is listed as “no significant cytotoxicity”. Also, the Morphology of cells result in data set [1] (light microscopy, compared to cisplatin-treated cells) is given as “remains intact”.

In the case of `CC(C)CC(=O)N[C@H](C(=O)N[C@H](C(=O)N[C@@H](CC(C)C)[C@@H](O)CC(=O)N[C@@H](C)C(=O)N[C@@H](CC(C)C)[C@@H](O)CC(=O)O)C(C)C)C(C)C` [Pepstatin A] (Isovaleryl-VV[Sta]A[Sta]-OH), the Ki in data set [2] came out at 0.07 nM.

For the origin of these results see article PMC6309945 (The FEBS journal, 2018).
